Measurements published in EP0520722B1, “Therapeutic preparations containing quinazoline derivatives” (ZENECA LIMITED, priority 1991, dated 1992).
Counter-ions that a name gives are not always drawn.

Key:
receptor tyrosine kinase = target: T1, receptor tyrosine kinase (Homo sapiens, UniProt P00533); experiment: Test (a): in vitro receptor tyrosine kinase inhibition assay (EGF-stimulated peptide phosphorylation, [γ-32P]ATP); format: biochemical; conditions: enzyme partially purified from A-431 cells (human vulval carcinoma); in presence of EGF; 25°C for 10 minutes
T1 construct: The supernatant, containing solubilised receptor tyrosine kinase, was stored in liquid nitrogen; endogenous in cells; host or cells: A-431 cells (human vulval carcinoma); detergent-solubilised membrane fraction
T1 sequence (P00533 25-1210): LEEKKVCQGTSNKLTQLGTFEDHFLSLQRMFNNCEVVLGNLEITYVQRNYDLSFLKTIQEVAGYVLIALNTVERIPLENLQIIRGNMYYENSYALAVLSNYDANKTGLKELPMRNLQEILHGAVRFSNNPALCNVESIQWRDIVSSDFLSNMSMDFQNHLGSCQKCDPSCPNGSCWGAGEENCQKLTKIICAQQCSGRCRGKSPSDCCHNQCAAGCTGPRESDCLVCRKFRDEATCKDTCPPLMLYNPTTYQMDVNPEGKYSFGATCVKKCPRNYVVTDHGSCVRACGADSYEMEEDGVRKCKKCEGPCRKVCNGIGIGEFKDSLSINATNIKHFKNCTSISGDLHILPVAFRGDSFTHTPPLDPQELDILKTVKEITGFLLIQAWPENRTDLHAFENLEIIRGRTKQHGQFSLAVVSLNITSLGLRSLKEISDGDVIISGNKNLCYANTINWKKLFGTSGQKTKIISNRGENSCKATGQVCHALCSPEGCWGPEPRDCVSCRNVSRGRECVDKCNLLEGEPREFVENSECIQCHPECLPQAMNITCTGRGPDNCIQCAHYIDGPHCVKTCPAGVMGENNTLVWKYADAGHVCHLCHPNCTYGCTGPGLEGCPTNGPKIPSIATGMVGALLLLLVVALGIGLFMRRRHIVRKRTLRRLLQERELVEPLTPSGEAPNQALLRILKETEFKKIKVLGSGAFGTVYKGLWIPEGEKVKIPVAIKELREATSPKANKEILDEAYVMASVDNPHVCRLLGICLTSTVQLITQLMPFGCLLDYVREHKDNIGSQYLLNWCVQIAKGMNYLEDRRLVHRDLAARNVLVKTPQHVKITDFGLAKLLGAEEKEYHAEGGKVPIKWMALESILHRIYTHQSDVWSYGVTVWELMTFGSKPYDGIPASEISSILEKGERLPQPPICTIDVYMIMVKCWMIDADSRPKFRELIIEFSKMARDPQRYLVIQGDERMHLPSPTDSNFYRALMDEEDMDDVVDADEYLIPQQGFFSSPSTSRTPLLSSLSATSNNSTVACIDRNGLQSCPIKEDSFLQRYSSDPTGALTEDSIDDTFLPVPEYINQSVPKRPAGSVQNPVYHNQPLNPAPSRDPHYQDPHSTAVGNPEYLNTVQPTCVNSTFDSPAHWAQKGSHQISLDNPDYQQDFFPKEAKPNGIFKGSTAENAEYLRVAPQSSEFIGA
Experimental: (a) An in vitro assay which determines the ability of a test compound to inhibit the enzyme receptor tyrosine kinase. Receptor tyrosine kinase was obtained in partially purified form from A-431 cells (derived from human vulval carcinoma) by procedures related to those described by Carpenter et al., J. Biol. Chem., 1979, 254, 4884, Cohen et al., J. Biol. Chem., 1982, 257, 1523 and by Braun et al., J. Biol. Chem., 1984, 259, 2051.
A-431 cells were grown to confluence using Dulbecco′s modified Eagle′s medium (DMEM) containing 5% fetal calf serum (FCS). The obtained cells were homogenised in a hypotonic borate/EDTA buffer at pH 10.1. The homogenate was centrifuged at 400 g for 10 minutes at 0-4°C. The supernatant was centrifuged at 25,000 g for 30 minutes at 0-4°C. The pelleted material was suspended in 30 mM Hepes buffer at pH 7.4 containing 5% glycerol, 4 mM benzamidine and 1% Triton X-100, stirred for 1 hour at 0-4°C, and recentrifuged at 100,000 g for 1 hour at 0-4°C. The supernatant, containing solubilised receptor tyrosine kinase, was stored in liquid nitrogen.
For test purposes 40 µl of the enzyme solution so obtained was added to a mixture of 400 µl of a mixture of 150 mM Hepes buffer at pH 7.4, 500 µM sodium orthovanadate, 0.1% Triton X-100, 10% glycerol, 200 µl water, 80 µl of 25 mM DTT and 80µl of a mixture of 12.5 mM manganese chloride, 125 mM magnesium chloride and distilled water. There was thus obtained the test enzyme solution.
Each test compound was dissolved in dimethylsulphoxide (DMSO) to give a 50 mM solution which was diluted with 40 mM Hepes buffer containing 0.1% Triton X-100, 10% glycerol and 10% DMSO to give a 500 µM solution. Equal volumes of this solution and a solution of epidermal growth factor (EGF; 20 µg/ml) were mixed.
[γ-^32P]ATP (3000 Ci/mM, 250 µCi) was diluted to a volume of 2 ml by the addition of a solution of ATP (100 µM) in distilled water. An equal volume of a 4 mg/ml solution of the peptide Arg-Arg-Leu-Ile-Glu-Asp-Ala-Glu-Tyr-Ala-Ala-Arg-Gly in a mixture of 40 mM Hepes buffer at pH 7.4, 0.1% Triton X-100 and 10% glycerol was added.
The test compound/EGF mixture solution (5 µl) was added to the test enzyme solution (10 µl) and the mixture was incubated at 0-4°C for 30 minutes. The ATP/peptide mixture (10 µl) was added and the mixture was incubated at 25°C for 10 minutes. […] Radioactivity present in the filter paper was measured using a liquid scintillation counter (Sequence A). […]
Receptor tyrosine kinase inhibition was calculated as follows:- % Inhibition =[…] [formula]
The extent of inhibition was then determined at a range of concentrations of test compound to give an IC50 value.

[1] = tested on: human naso-pharyngeal cell line KB; experiment: Test (b): in vitro inhibition of EGF-stimulated growth of KB cells (MTT); format: cell-based; conditions: 72 h, EGF (10 ng/ml), incubation for 3 days
Experimental: (b) An in vitro assay which determines the ability of a test compound to inhibit the growth of the human naso-pharyngeal cell line KB.
KB cells were seeded into wells at a density of 1 x 10 - 1.5 x 10^4 cells per well and grown for 24 hours in DMEM supplemented with 5% FCS (charcoal-stripped). Cell growth was determined after incubation for 3 days by the extent of metabolism of MTT tetrazolium dye to furnish a bluish colour. Cell growth was then determined in the presence of EGF (10 ng/ml) or in the presence of EGF (10 ng/ml) and a test compound at a range of concentrations. An IC50 value could then be calculated.

## Brc1cccc(Nc2ncnc3ccccc23)c1 [4-(3'-bromoanilino)quinazoline, 4-(3'-bromoanilino)quinazoline hydrochloride]
Receptor tyrosine kinase
  IC50: 20 nM
[1]
  IC50: 780 nM

## Clc1cccc(Nc2ncnc3ccccc23)c1 [4-(3'-chloroanilino)quinazoline, 4-(3′-chloroanilino)quinazoline hydrochloride]
Receptor tyrosine kinase
  IC50: 40 nM
[1]
  IC50: ~5000 nM

## Cc1cccc(Nc2ncnc3ccccc23)c1 [4-(3'-methylanilino)-quinazoline]
Receptor tyrosine kinase
  IC50: 180 nM
[1]
  IC50: ~5000 nM

## Clc1cccc(Nc2ncnc3cc(Cl)ccc23)c1 [7-chloro-4-(3'-chloroanilino)quinazoline]
Receptor tyrosine kinase
  IC50: 20 nM
[1]
  IC50: 1000 nM
